Series [1] is described as follows: Average plasma concentration at steady state in mouse at 250 mg/kg administered bid. The class given is ADME, organism-based. As to conditions: in vivo.
Series [2] can be described thus: AUC (0 to 24 hrs) at steady state in mouse at 62 mg/kg administered bid. It is filed as ADME, organism-based. Also on record: time < 24 hr, dose 62 mg/kg. The note with it: in vivo.
Series [3] in a line: Apparent oral clearance in female cynomolgus monkey at 150 mg/kg, po BID measured on day 8. The note with it: in vivo. It is filed as ADME, organism-based, Macaca fascicularis.
Series [4] is described as follows: Chemical stability of compound in simulated gastric fluid assessed as compound remaining at 5 uM measured after 24 hrs by LC-MS/MS analysis. The note with it: read-out: Stabilty. It is filed as ADME, physicochemical.

In series [1], `Cn1cc(C[C@@H](N)C(=O)O)c2ccccc21` [INDOXIMOD] displayed a Cave of 29 µM. In addition, in series [2], the AUC (commonly the area under the concentration-time curve, a measure of exposure) at 24 h is above 170 µM·h. The CL/F (as a rule, clearance divided by bioavailability, as obtained after extravascular dosing) in series [3] came out at 17.6 mL/min/kg.

`CCOC(=O)[C@@H](Cc1cn(C)c2ccccc12)NC(=O)[C@@H](N)CC(C)C.Cl`: in series [4], the remaining at 24 h, 5 µM was 88%.

The values above are taken from ChEMBL document CHEMBL4837181 (Eur J Med Chem, 2020).
